{
  "source": "ChEMBL document CHEMBL1128651",
  "about": "“Preparation and in vitro activity of aryl ether derivatives of the FK-506 related immunosuppressive macrolides ascomycin and L-683,742” (Bioorg Med Chem Lett, 1995)",
  "data": [
    {"test_system": "Murine T-cell line", "test": "Inhibition of proliferation of PMA and Ionomycin stimulated murine T cells", "assay_type": "functional, cell-based", "settings": "Mus musculus", "units": {"IC50": "nM"}, "values": [
      {"smiles": "CC[C@@H]1/C=C(\\C)C[C@H](C)C[C@H](OC)[C@H]2O[C@@](O)(C(=O)C(=O)N3CCCC[C@H]3C(=O)O[C@H](/C(C)=C/[C@@H]3CC[C@@H](O)[C@H](Oc4ccc(O)cc4)C3)[C@H](C)[C@@H](O)CC1=O)[C@H](C)C[C@@H]2OC", "IC50": 0.9},
      {"smiles": "CC[C@@H]1/C=C(\\C)C[C@H](C)C[C@H](OC)[C@H]2O[C@@](O)(C(=O)C(=O)N3CCCC[C@H]3C(=O)O[C@H](/C(C)=C/[C@@H]3CC[C@@H](Oc4ccccc4)[C@H](OC)C3)[C@H](C)[C@@H](O)CC1=O)[C@H](C)C[C@@H]2OC", "IC50": 5.4},
      {"smiles": "CC[C@@H]1/C=C(\\C)C[C@H](C)C[C@H](OC)[C@H]2O[C@@](O)(C(=O)C(=O)N3CCCC[C@H]3C(=O)O[C@H](/C(C)=C/[C@@H]3CC[C@@H](O)[C@H](O)C3)[C@H](C)[C@@H](O)CC1=O)[C@H](C)C[C@@H]2OC", "IC50": 1.63},
      {"smiles": "CC[C@@H]1/C=C(\\C)C[C@H](C)C[C@H](OC)[C@H]2O[C@@](O)(C(=O)C(=O)N3CCCC[C@H]3C(=O)O[C@H](/C(C)=C/[C@@H]3CC[C@@H](Oc4ccc(OC)cc4)[C@H](OC)C3)[C@H](C)[C@@H](O)CC1=O)[C@H](C)C[C@@H]2OC", "IC50": 1.4},
      {"smiles": "CC[C@@H]1/C=C(\\C)C[C@H](C)C[C@H](OC)[C@H]2O[C@@](O)(C(=O)C(=O)N3CCCC[C@H]3C(=O)O[C@H](/C(C)=C/[C@@H]3CC[C@@H](Oc4ccc(O)cc4)[C@H](OC)C3)[C@H](C)[C@@H](O)CC1=O)[C@H](C)C[C@@H]2OC", "IC50": 0.8},
      {"smiles": "CC[C@@H]1/C=C(\\C)C[C@H](C)C[C@H](OC)[C@H]2O[C@@](O)(C(=O)C(=O)N3CCCC[C@H]3C(=O)O[C@H](/C(C)=C/[C@@H]3CC[C@@H](Oc4ccc(C(F)(F)F)cc4)[C@H](OC)C3)[C@H](C)[C@@H](O)CC1=O)[C@H](C)C[C@@H]2OC", "IC50": 35.8},
      {"smiles": "CC[C@@H]1/C=C(\\C)C[C@H](C)C[C@H](OC)[C@H]2O[C@@](O)(C(=O)C(=O)N3CCCC[C@H]3C(=O)O[C@H](/C(C)=C/[C@@H]3CC[C@@H](Oc4cc(C(F)(F)F)cc(C(F)(F)F)c4)[C@H](OC)C3)[C@H](C)[C@@H](O)CC1=O)[C@H](C)C[C@@H]2OC", "IC50": 607},
      {"smiles": "CC[C@@H]1/C=C(\\C)C[C@H](C)C[C@H](OC)[C@H]2O[C@@](O)(C(=O)C(=O)N3CCCC[C@H]3C(=O)O[C@H](/C(C)=C/[C@@H]3CC[C@@H](O)[C@H](Oc4ccccc4)C3)[C@H](C)[C@@H](O)CC1=O)[C@H](C)C[C@@H]2OC", "IC50": 3.2},
      {"smiles": "CC[C@@H]1/C=C(\\C)C[C@H](C)C[C@H](OC)[C@H]2O[C@@](O)(C(=O)C(=O)N3CCCC[C@H]3C(=O)O[C@H](/C(C)=C/[C@@H]3CC[C@@H](O)[C@H](Oc4ccc(OC)cc4)C3)[C@H](C)[C@@H](O)CC1=O)[C@H](C)C[C@@H]2OC", "IC50": 0.9},
      {"smiles": "CC[C@@H]1/C=C(\\C)C[C@H](C)C[C@H](OC)[C@H]2O[C@@](O)(C(=O)C(=O)N3CCCC[C@H]3C(=O)O[C@H](/C(C)=C/[C@@H]3CC[C@@H](Oc4cccc(C)c4)[C@H](OC)C3)[C@H](C)[C@@H](O)CC1=O)[C@H](C)C[C@@H]2OC", "IC50": 5.4},
      {"smiles": "CC[C@@H]1/C=C(\\C)C[C@H](C)C[C@H](OC)[C@H]2O[C@@](O)(C(=O)C(=O)N3CCCC[C@H]3C(=O)O[C@H](/C(C)=C/[C@@H]3CC[C@@H](Oc4cccc(OC)c4)[C@H](OC)C3)[C@H](C)[C@@H](O)CC1=O)[C@H](C)C[C@@H]2OC", "IC50": 3.4},
      {"smiles": "CC[C@@H]1/C=C(\\C)C[C@H](C)C[C@H](OC)[C@H]2O[C@@](O)(C(=O)C(=O)N3CCCC[C@H]3C(=O)O[C@H](/C(C)=C/[C@@H]3CC[C@@H](O)[C@H](Oc4ccc(C)cc4)C3)[C@H](C)[C@@H](O)CC1=O)[C@H](C)C[C@@H]2OC", "IC50": 2.6},
      {"smiles": "CC[C@@H]1/C=C(\\C)C[C@H](C)C[C@H](OC)[C@H]2O[C@@](O)(C(=O)C(=O)N3CCCC[C@H]3C(=O)O[C@H](/C(C)=C/[C@@H]3CC[C@@H](O)[C@H](OC)C3)[C@H](C)[C@@H](O)CC1=O)[C@H](C)C[C@@H]2OC", "note": "[ASCOMYCIN]", "IC50": 0.69},
      {"smiles": "CC[C@@H]1/C=C(\\C)C[C@H](C)C[C@H](OC)[C@H]2O[C@@](O)(C(=O)C(=O)N3CCCC[C@H]3C(=O)O[C@H](/C(C)=C/[C@@H]3CC[C@@H](Oc4ccc(C)cc4)[C@H](O)C3)[C@H](C)[C@@H](O)CC1=O)[C@H](C)C[C@@H]2OC", "IC50": 6},
      {"smiles": "CC[C@@H]1/C=C(\\C)C[C@H](C)C[C@H](OC)[C@H]2O[C@@](O)(C(=O)C(=O)N3CCCC[C@H]3C(=O)O[C@H](/C(C)=C/[C@@H]3CC[C@@H](Oc4ccc(SC)cc4)[C@H](OC)C3)[C@H](C)[C@@H](O)CC1=O)[C@H](C)C[C@@H]2OC", "IC50": 2.6},
      {"smiles": "CC[C@@H]1/C=C(\\C)C[C@H](C)C[C@H](OC)[C@H]2O[C@@](O)(C(=O)C(=O)N3CCCC[C@H]3C(=O)O[C@H](/C(C)=C/[C@@H]3CC[C@@H](Oc4cccc(O)c4)[C@H](OC)C3)[C@H](C)[C@@H](O)CC1=O)[C@H](C)C[C@@H]2OC", "IC50": 1.7},
      {"smiles": "CC[C@@H]1/C=C(\\C)C[C@H](C)C[C@H](OC)[C@H]2O[C@@](O)(C(=O)C(=O)N3CCCC[C@H]3C(=O)O[C@H](/C(C)=C/[C@@H]3CC[C@@H](Oc4ccccc4)[C@H](O)C3)[C@H](C)[C@@H](O)CC1=O)[C@H](C)C[C@@H]2OC", "IC50": 5.2},
      {"smiles": "CC[C@@H]1/C=C(\\C)C[C@H](C)C[C@H](OC)[C@H]2O[C@@](O)(C(=O)C(=O)N3CCCC[C@H]3C(=O)O[C@H](/C(C)=C/[C@@H]3CC[C@@H](Oc4ccc(C)cc4)[C@H](OC)C3)[C@H](C)[C@@H](O)CC1=O)[C@H](C)C[C@@H]2OC", "IC50": 2.7},
      {"smiles": "CC[C@@H]1/C=C(\\C)C[C@H](C)C[C@H](OC)[C@H]2O[C@@](O)(C(=O)C(=O)N3CCCC[C@H]3C(=O)O[C@H](/C(C)=C/[C@@H]3CC[C@@H](Oc4ccc(F)cc4)[C@H](OC)C3)[C@H](C)[C@@H](O)CC1=O)[C@H](C)C[C@@H]2OC", "IC50": 3.4},
      {"smiles": "CC[C@@H]1/C=C(\\C)C[C@H](C)C[C@H](OC)[C@H]2O[C@@](O)(C(=O)C(=O)N3CCCC[C@H]3C(=O)O[C@H](/C(C)=C/[C@@H]3CC[C@@H](Oc4ccc(O)cc4)[C@H](O)C3)[C@H](C)[C@@H](O)CC1=O)[C@H](C)C[C@@H]2OC", "IC50": 1.6},
      {"smiles": "CC[C@@H]1/C=C(\\C)C[C@H](C)C[C@H](OC)[C@H]2O[C@@](O)(C(=O)C(=O)N3CCCC[C@H]3C(=O)O[C@H](/C(C)=C/[C@@H]3CC[C@@H](Oc4ccc(N(C)C)cc4)[C@H](OC)C3)[C@H](C)[C@@H](O)CC1=O)[C@H](C)C[C@@H]2OC", "IC50": 1.1},
      {"smiles": "CC[C@@H]1/C=C(\\C)C[C@H](C)C[C@H](OC)[C@H]2O[C@@](O)(C(=O)C(=O)N3CCCC[C@H]3C(=O)O[C@H](/C(C)=C/[C@@H]3CC[C@@H](Oc4ccc(OC)cc4)[C@H](O)C3)[C@H](C)[C@@H](O)CC1=O)[C@H](C)C[C@@H]2OC", "IC50": 1.2}
    ]}
  ]
}
